Laboratory results published in ChEMBL document CHEMBL1143799, “Synthesis and primary cytotoxicity evaluation of new imidazo[2,1-b]thiazole derivatives” (2007).

Tests used:
Type in all cases: functional
CCRF-CEM = experiment: Growth inhibition of human CCRF-CEM cells after 48 hrs by SRB protein assay
RPMI-8226 = experiment: Growth inhibition of human RPMI8226 cells after 48 hrs by SRB protein assay; details: RPMI-8226, 48 h
A549 = experiment: Growth inhibition of human A549 cells after 48 hrs by SRB protein assay; details: A549, 48 h
EKVX = experiment: Growth inhibition of human EKVX cells after 48 hrs by SRB protein assay
NCI-H23 = experiment: Growth inhibition of human NCI-H23 cells after 48 hrs by SRB protein assay; details: NCI-H23, 48 h
NCI-H460 = experiment: Growth inhibition of human NCI-H460 cells after 48 hrs by SRB protein assay; details: NCI-H460, 48 h
NCI-H522 = experiment: Growth inhibition of human NCI-H522 cells after 48 hrs by SRB protein assay; details: NCI-H522, 48 h
COLO 205 = experiment: Growth inhibition of human COLO205 cells after 48 hrs by SRB protein assay; details: COLO 205, 48 h
HCC 2998 = experiment: Growth inhibition of human HCC2998 cells after 48 hrs by SRB protein assay; details: HCC 2998, 48 h
HCT-116 = experiment: Growth inhibition of human HCT116 cells after 48 hrs by SRB protein assay; details: HCT-116, 48 h
HCT-15 = experiment: Growth inhibition of human HCT15 cells after 48 hrs by SRB protein assay; details: HCT-15, 48 h
HT-29 = experiment: Growth inhibition of human HT29 cells after 48 hrs by SRB protein assay; details: HT-29, 48 h
SW-620 = experiment: Growth inhibition of human SW620 cells after 48 hrs by SRB protein assay; details: SW-620, 48 h
SF-295 = experiment: Growth inhibition of human SF295 cells after 48 hrs by SRB protein assay; details: SF-295, 48 h
SF-539 = experiment: Growth inhibition of human SF539 cells after 48 hrs by SRB protein assay; details: SF-539, 48 h
SNB-19 = experiment: Growth inhibition of human SNB19 cells after 48 hrs by SRB protein assay; details: SNB-19, 48 h
SNB-75 = experiment: Growth inhibition of human SNB75 cells after 48 hrs by SRB protein assay; details: SNB-75, 48 h
LOX IMVI = experiment: Growth inhibition of human LOX IMVI cells after 48 hrs by SRB protein assay
SK-MEL-2 = experiment: Growth inhibition of human SK-MEL-2 cells after 48 hrs by SRB protein assay; details: SK-MEL-2, 48 h
SK-MEL-28 = experiment: Growth inhibition of human SK-MEL-28 cells after 48 hrs by SRB protein assay; details: SK-MEL-28, 48 h
UACC-257 = experiment: Growth inhibition of human UACC257 cells after 48 hrs by SRB protein assay; details: UACC-257, 48 h
UACC-62 = experiment: Growth inhibition of human UACC62 cells after 48 hrs by SRB protein assay; details: UACC-62, 48 h
IGROV-1 = experiment: Growth inhibition of human IGROV1 cells after 48 hrs by SRB protein assay; details: IGROV-1, 48 h
OVCAR-3 = experiment: Growth inhibition of human OVCAR-3 cells after 48 hrs by SRB protein assay; details: OVCAR-3, 48 h
OVCAR-8 = experiment: Growth inhibition of human OVCAR8 cells after 48 hrs by SRB protein assay; details: OVCAR-8, 48 h
SK-OV-3 = experiment: Growth inhibition of human SK-OV-3 cells after 48 hrs by SRB protein assay; details: SK-OV-3, 48 h
[1] = Growth inhibition of human 786O cells after 48 hrs by SRB protein assay; details: 786-0, 48 h
ACHN = experiment: Growth inhibition of human ACHN cells after 48 hrs by SRB protein assay
CAKI-1 = experiment: Growth inhibition of human CAKI1 cells after 48 hrs by SRB protein assay; details: CAKI-1, 48 h
RXF 393 = experiment: Growth inhibition of human RXF393 cells after 48 hrs by SRB protein assay; details: RXF 393, 48 h
SN12C = experiment: Growth inhibition of human SN12C cells after 48 hrs by SRB protein assay
UO-31 = experiment: Growth inhibition of human UO31 cells after 48 hrs by SRB protein assay; details: UO-31, 48 h
PC-3 = experiment: Growth inhibition of human PC3 cells after 48 hrs by SRB protein assay; details: PC-3, 48 h
DU-145 = experiment: Growth inhibition of human DU145 cells after 48 hrs by SRB protein assay; details: DU-145, 48 h
MCF7 = experiment: Growth inhibition of human MCF7 cells after 48 hrs by SRB protein assay; details: MCF7, 48 h
MDA-MB-231 = experiment: Growth inhibition of MDA-MB-231 cells after 48 hrs by SRB protein assay; details: Homo sapiens, MDA-MB-231, 48 h
MDA-MB-435 = experiment: Growth inhibition of human MDA-MB-435 cells after 48 hrs by SRB protein assay; details: MDA-MB-435, 48 h
T47D = experiment: Growth inhibition of human T47D cells after 48 hrs by SRB protein assay
OVCAR-5 = experiment: Growth inhibition of human OVCAR5 cells after 48 hrs by SRB protein assay; details: OVCAR-5, 48 h

GI50 (CCRF-CEM): 39.8 µM | GI50 (RPMI-8226): 79.4 µM | GI50 (A549): 17 µM | GI50 (NCI-H23): 25.7 µM | GI50 (NCI-H460): > 100 µM | GI50 (NCI-H522): 25.7 µM | GI50 (COLO 205): 75.9 µM | GI50 (HCC 2998): 20 µM | GI50 (HCT-116): 17 µM | GI50 (HCT-15): 25.7 µM | GI50 (HT-29): 40.7 µM | GI50 (SW-620): 22.9 µM | GI50 (SK-MEL-2): 72.4 µM | GI50 (SK-MEL-28): > 100 µM | GI50 (OVCAR-3): 34.7 µM | GI50 (OVCAR-8): 18.6 µM | GI50 (SK-OV-3): > 100 µM | GI50 (ACHN): 22.4 µM | GI50 (PC-3): 30.2 µM | GI50 (DU-145): 26.3 µM | GI50 (MCF7): > 100 µM | GI50 (MDA-MB-231): 26.3 µM | GI50 (MDA-MB-435): 31.6 µM | GI50 (T47D): > 100 µM | GI50 (OVCAR-5): 28.8 µM
Structure (SMILES): O=C(Cc1csc2nc(-c3ccc(Br)cc3)cn12)N/N=C/c1ccc(Cl)cc1Cl
TGI (CCRF-CEM; read-out: Log TGI (converted)): > 100 µM | TGI (RPMI-8226; read-out: Log TGI (converted)): > 100 µM | TGI (A549; read-out: Log TGI (converted)): 37.2 µM | GI50 (EKVX): 31.6 µM | TGI (EKVX; read-out: Log TGI (converted)): > 100 µM | TGI (NCI-H23; read-out: Log TGI (converted)): 56.2 µM | TGI (NCI-H460; read-out: Log TGI (converted)): > 100 µM | TGI (NCI-H522; read-out: Log TGI (converted)): > 100 µM | TGI (COLO 205; read-out: Log TGI (converted)): > 100 µM | TGI (HCC 2998; read-out: Log TGI (converted)): 44.7 µM | TGI (HCT-116; read-out: Log TGI (converted)): 37.2 µM | TGI (HCT-15; read-out: Log TGI (converted)): 72.4 µM | TGI (HT-29; read-out: Log TGI (converted)): > 100 µM | TGI (SW-620; read-out: Log TGI (converted)): 60.3 µM | GI50 (SF-295): 34.7 µM | TGI (SF-295; read-out: Log TGI (converted)): > 100 µM | GI50 (SF-539): 26.9 µM | TGI (SF-539; read-out: Log TGI (converted)): 63.1 µM | GI50 (SNB-19): 95.5 µM | TGI (SNB-19; read-out: Log TGI (converted)): > 100 µM | GI50 (SNB-75): 37.2 µM | TGI (SNB-75; read-out: Log TGI (converted)): > 100 µM | GI50 (LOX IMVI): 21.4 µM | TGI (LOX IMVI; read-out: Log TGI (converted)): 49 µM | TGI (SK-MEL-2; read-out: Log TGI (converted)): > 100 µM | TGI (SK-MEL-28; read-out: Log TGI (converted)): > 100 µM | GI50 (UACC-257): 69.2 µM | TGI (UACC-257; read-out: Log TGI (converted)): > 100 µM | GI50 (UACC-62): 23.4 µM | TGI (UACC-62; read-out: Log TGI (converted)): 67.6 µM | GI50 (IGROV-1): 15.8 µM | TGI (IGROV-1; read-out: Log TGI (converted)): 45.7 µM | TGI (OVCAR-3; read-out: Log TGI (converted)): > 100 µM | TGI (OVCAR-8; read-out: Log TGI (converted)): 50.1 µM | TGI (SK-OV-3; read-out: Log TGI (converted)): > 100 µM | GI50 [1]: 25.7 µM | TGI ([1]; read-out: Log TGI (converted)): 74.1 µM | TGI (ACHN; read-out: Log TGI (converted)): 53.7 µM | GI50 (CAKI-1): 36.3 µM | TGI (CAKI-1; read-out: Log TGI (converted)): > 100 µM | GI50 (RXF 393): 28.2 µM | TGI (RXF 393; read-out: Log TGI (converted)): 85.1 µM | GI50 (SN12C): 85.1 µM | TGI (SN12C; read-out: Log TGI (converted)): > 100 µM | GI50 (UO-31): 72.4 µM | TGI (UO-31; read-out: Log TGI (converted)): > 100 µM | TGI (PC-3; read-out: Log TGI (converted)): > 100 µM | TGI (DU-145; read-out: Log TGI (converted)): > 100 µM | TGI (MCF7; read-out: Log TGI (converted)): > 100 µM | TGI (MDA-MB-231; read-out: Log TGI (converted)): > 100 µM | TGI (MDA-MB-435; read-out: Log TGI (converted)): > 100 µM | TGI (T47D; read-out: Log TGI (converted)): > 100 µM | TGI (OVCAR-5; read-out: Log TGI (converted)): 67.6 µM
